Laboratory results from patent US20060004029A1, “Nitrogen-containing aromatic derivatives” (priority 2003, published 2006).

Assays:
[1] = tested on: Human Umbilical Vein Endothelial Cells (HUVECs); experiment: Inhibition against sandwich tube formation by vascular endothelial cells, FGF2-stimulated; assay type: cell-based; details: HUVEC, 20 ng/ml FGF2 and 10 ng/ml EGF, 4th day after addition
Procedure: Human Umbilical Vein Endothelial Cells (HUVECs) were isolated according to a reported method (Shinseikagaku Jikken Koza [New Biochemistry Experiment Lectures], “Saibo Baiyo Gijutsu” [Cell Culturing Techniques], p. 197-202), • and were cultured in a 5% CO2 incubator (37° C.) using EGM-2 medium (purchased from Clonetics Corp.) until the cells reached confluency.
An ice-cooled mixture of collagen: 5×RPMI 1640: reconstitution buffer (all purchased from Nitta Gelatin, Inc.) at 7:2:1 was dispensed at 0.4 ml into each well of a 24-well plate. After the solution was gelled by being stationed for 40 minutes in a 5% CO2 incubator (37° C.), HUVEC cell suspension was added at 0.4 ml to each well (using 1 to 1.2×10^5 cells, though the numbers of cells differ slightly according to the HUVEC lot), the HUVEC cell suspension being in human endothelial serum free medium (SFM, purchased from GIBCO BRL) containing added angiogenesis factors [20 ng/ml FGF2 (purchased from GIBCO BRL) and 10 ng/ml EGF (purchased from GIBCO BRL), or 25 ng/ml VEGF (purchased from Wako Pure Chemical Industries Co., Ltd.) and 10 ng/ml EGF, or 30 ng/ml HGF (purchased from R&D Co.) and 10 ng/ml EGF], and cultured overnight in a 5% CO2 incubator (37° C.). On the following day, the medium on the upper layer was aspirated off, and then 0.4 ml of an ice-cooled mixture of collagen: 5×RPMI 1640: reconstitution buffer (all purchased from Nitta Gelatin, Inc.) at 7:2:1 was superposed into each well prior to stationing for 4 hours in a 5% CO2 incubator (37° C.) for gelling. After adding 1.5 ml of an SFM solution containing each of the aforementioned angiogenesis factors and a diluted test substance onto the upper layer, culturing was performed in a 5% CO2 incubator (37° C.). Upon aspirating off the culture supernatant in each well on the 4th day after addition of the test substance, 0.4 ml of a 3.3 mg/ml MTT solution dissolved in PBS (purchased from Sigma Corp.) was added to each well and culturing was performed for approximately 2 hours in a 5% CO2 incubator (37° C.). The tubes formed in the collagen gel of each well were stained by MTT, the tube images were loaded into a computer (Macintosh), and the total length of the tubes was determined by image analysis software “MacScope” (purchased from Mitani Corp.). The ratio of the total length of the tubes formed in the well containing the test substance with respect to the total length of the tubes formed in the well containing no test substance was expressed as a percentage, and the concentration of each test substance required for 50% inhibition of tube formation (IC50) was determined from the ratio value.

[2] = tested on: KP-1/VEGF cells; experiment: Antitumor activity on KP-1/VEGF cells in subcutaneous xenograft models; assay type: in vivo, mouse; details: oral twice a day, 2 weeks (5 days per week), Balb/c (nu/nu) mice
Procedure: VEGF high-expressing pancreatic cancer cells (KP-1/VEGF) suspended in PBS at a concentration of 1×10^7 cells/ml were transplanted under the right flank skin of 6-week-old female Balb/c (nu/nu) mice in a volume of 0.1 ml. When the tumor volume reached approximately 100 mm^3, the test substance was orally administered twice a day over a period of 2 weeks with a schedule of 5 days per week. The test substance was suspended in 0.5% methyl cellulose for an administered volume of 0.1 ml/10 g body weight. The tumor size was measured twice a week using a micrometer caliper. The tumor volume was determined by measuring the long and short diameters of the tumor with a micrometer caliper, and calculating ½×(long diameter×short diameter×short diameter). The experiment was conducted using 10 mice in the control (solvent-administered) group and 5 mice in each test substance-administered group.

Row | SMILES | IC50 [1] | proportion of the tumor volume after administering test substance to that of control ([2]; 6 mg/kg/day) | proportion of the tumor volume after administering test substance to that of control ([2]; 20 mg/kg/day) | proportion of the tumor volume after administering test substance to that of control ([2]; 60 mg/kg/day) | proportion of the tumor volume after administering test substance to that of control ([2]; 200 mg/kg/day)
1 | CNC(=O)n1ccc2cc(Oc3ccnc(NC(=O)N4CCC(O)CC4)c3)ccc21 [Example 39, N1-Methyl-5-(2-((4-hydroxypiperidino)carbonyl)amino-4-pyridyl)oxy-1H-1-indolecarboxamide] | 470 nM |  |  |  | 
2 | CNC(=O)n1ccc2cc(Oc3ccnc(NC(=O)N4CCC(C)(O)CC4)c3)ccc21 [Example 41, 5-(2-(((4-Hydroxy-4-methylpiperidin-1-yl)carbonyl)amino)pyridin-4-yloxy)-1H-1-indole-1-carboxylic acid methylamide] | 250 nM |  |  |  | 
3 | CNC(=O)n1ccc2cc(Oc3ccnc(NC(=O)N4CCC(N5CCCC5)CC4)c3)ccc21 [Example 46, N1-Methyl-5-(2-(((4-(pyrrolidin-1-yl)piperidin-1-yl)carbonyl)amino)pyridin-4-yloxy)-1H-1-indolecarboxamide] | 470 nM | 77.7% | 59.3% | 60.0% | 36.2%
4 | CNC(=O)n1ccc2cc(Oc3ccnc(NC(=O)N4CCC(N5CCCCC5)CC4)c3)ccc21 [Example 47, N1-Methyl-5-(2-(((4-(piperidin-1-yl)piperidin-1-yl)carbonyl)amino)pyridin-4-yloxy)-1H-1-indolecarboxamide] | 120 nM | 80.5% | 64.6% | 45.3% | 33.6%
5 | CNC(=O)n1ccc2cc(Oc3ccnc(NC(=O)N4CCOCC4)c3)ccc21 [Example 53, N4-(4-(1-(Methylamino)carbonyl-1H-5-indolyl)oxy-2-pyridyl)-4-morpholinecarboxamide] | 440 nM | 73.1% | 60.4% | 48.4% | 37.9%
